# Data as given in patent publication US9498387B2, “Absorbent article having bent sections” (UNICHARM CORPORATION, priority 2012, dated 2016).
# Source text: As used herein, the term “solubility” in regard to water solubility includes cases where the sample completely dissolves in deionized water to form a homogeneous mixture, and cases where the sample is completely emulsified. As used herein, “completely” means that no mass of the sample remains in the deionized water.
smiles,measurement,value
CCCCCCCCCCCCCC(=O)OCCCCCCCCCCCC [2-19],Water solubility,<0.05 g
CCCCCCCCCCCCOC(=O)CCCCCCCCCCC [2-18],Water solubility,<0.05 g
